Measured values published in ChEMBL document CHEMBL2073813, “Regulation of renal oatp mRNA expression by testosterone” (Am J Physiol, 1996).

Columns and labels:
[1] = target: T1, Solute carrier organic anion transporter family member 1A1 (Rattus norvegicus, UniProt P46720); test: TP_TRANSPORTER: Northern blot; assay type: functional
T1 sequence (P46720 whole entry): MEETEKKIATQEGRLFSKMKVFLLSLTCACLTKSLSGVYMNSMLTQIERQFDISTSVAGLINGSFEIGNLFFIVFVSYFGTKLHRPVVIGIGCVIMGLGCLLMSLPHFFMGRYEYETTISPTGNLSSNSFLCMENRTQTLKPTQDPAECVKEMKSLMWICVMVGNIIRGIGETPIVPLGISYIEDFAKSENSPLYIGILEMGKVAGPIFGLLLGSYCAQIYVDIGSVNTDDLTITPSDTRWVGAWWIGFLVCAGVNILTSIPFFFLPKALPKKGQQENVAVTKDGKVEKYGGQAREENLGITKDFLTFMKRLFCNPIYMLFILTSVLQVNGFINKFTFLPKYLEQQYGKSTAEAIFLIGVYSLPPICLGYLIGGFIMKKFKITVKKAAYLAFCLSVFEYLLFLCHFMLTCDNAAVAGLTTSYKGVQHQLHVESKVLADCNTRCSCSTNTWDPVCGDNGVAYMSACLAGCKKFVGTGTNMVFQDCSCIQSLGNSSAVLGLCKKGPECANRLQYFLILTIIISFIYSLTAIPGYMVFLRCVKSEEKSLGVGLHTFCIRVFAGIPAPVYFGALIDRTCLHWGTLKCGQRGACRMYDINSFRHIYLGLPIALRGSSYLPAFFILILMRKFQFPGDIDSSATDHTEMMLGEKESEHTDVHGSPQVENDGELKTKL

[2] = target: T1, Solute carrier organic anion transporter family member 1A1; test: TP_TRANSPORTER: Northern blot in vivo, kidney of SD rat; assay type: functional, organism-based, Sprague-Dawley

| SMILES | Activity [1] | Activity [2] |
| --- | --- | --- |
| C[C@]12CC[C@@H]3c4ccc(O)cc4CC[C@H]3[C@@H]1CC[C@@H]2O [ESTRADIOL] | inducer [+] | – |
| C[C@]12CC[C@H]3[C@@H](CCC4=CC(=O)CC[C@@]43C)[C@@H]1CC[C@@H]2O [TESTOSTERONE] | – | inducer [+] |
